The text below walks through data of patent US20260250639A1, “REPROGRAMMING METHOD” (Babraham Institute, priority 2022, published 2026).

One test concerns NSO4G neural stem cells. In words: Yamanaka factor-mediated reprogramming of NSO4G neural stem cells to iPSCs, flow cytometry of OCT4-GFP positive cells. It is filed as cell-based, mouse. The note with it: NSC reprogramming culture, end of reprogramming (day 15). An excerpt: FIG. 1: Schematic of method of reprogramming of mouse neural stem cells into induced pluripotent stem (iPS) cells. The mouse neural stem cell (NSC) line NSO4G harbours the GFP transgene under the control of Oct4 regulatory elements. […] Upon reprogramming, iPSCs grow in colonies and express GFP, allowing their visualisation and isolation from the remaining, non-reprogrammed cells.
A-C) Yamanaka factor-mediated reprogramming of NSO4G neural stem cells. D) Yamanaka factor-mediated reprogramming of human fibroblasts. A) Schematic representation of the experimental design for data in panels B and C. B) Flow cytometry plots (left) and quantification data (right) for the number of GFP-positive cells at the end of reprogramming, in the presence of PADI4 or control shRNAs. C) Flow cytometry plots (left) and quantification data (right) for the number of GFP-positive cells at the end of reprogramming, in the presence of CI-amidine or vehicle control. D) Quantification of iPS colonies, as a measure of the degree of reprogramming, after Yamanaka factor-mediated reprogramming of human fibroblasts, in the presence of two independent PADI4 inhibitors (CI-amidine or GSK484) or vehicle controls. […]
To investigate the timing of PADI4 expression during reprogramming, the method of reprogramming neural stem cells (NSCs) to iPSCs described in Theunissen et al. (2011) Current Biology, 21(1): 65-71 (doi: https://doi.org/10.1016/j.cub.2010.11.074) was used (FIG. 1). […] At various reprogramming timepoints, the reprogramming cells were harvested and the levels of mRNA encoding PADI4 and NANOG were quantified by qPCR (FIG. 2A) and protein levels (FIG. 2B). […]
Medium was conditioned by culture on NSC reprogramming cultures (FIG. 5A, “Conditioned medium”, bottom panel) or by incubated in empty plates lacking cells under the same conditions (FIG. 5A, “Control medium”, top panel) and added to new reprogramming (receiving) cultures after every 24 h. Reprogramming efficiency of the receiving cultures was assessed by flow cytometry based GFP quantification at the end of the reprogramming assay (day 15). […]

A further test deals with human fibroblasts. As to the kind of experiment: Yamanaka factor-mediated reprogramming of human fibroblasts, iPS colony count. The note with it: human fibroblast reprogramming culture without OCT4-GFP reporter, vs vehicle control. In kind it is cell-based. The source says:
A-C) Yamanaka factor-mediated reprogramming of NSO4G neural stem cells. D) Yamanaka factor-mediated reprogramming of human fibroblasts. A) Schematic representation of the experimental design for data in panels B and C. B) Flow cytometry plots (left) and quantification data (right) for the number of GFP-positive cells at the end of reprogramming, in the presence of PADI4 or control shRNAs. C) Flow cytometry plots (left) and quantification data (right) for the number of GFP-positive cells at the end of reprogramming, in the presence of CI-amidine or vehicle control. D) Quantification of iPS colonies, as a measure of the degree of reprogramming, after Yamanaka factor-mediated reprogramming of human fibroblasts, in the presence of two independent PADI4 inhibitors (CI-amidine or GSK484) or vehicle controls. The inhibitors were administered throughout the course of reprogramming.
FIG. 10: Inhibition of extracellular chromatin component-sensing pathways inhibits reprogramming. A) Schematic representation of the extra-nuclear DNA sensing pathway cGAS/STING (left panel). Flow cytometry-based quantification of GFP-positive cells at the end of NSC reprogramming (day 15), in the presence of STING inhibitor H-151, vehicle control (DMSO) or no treatment (right panel). B) Schematic representation of the signalling pathway downstream of the Damage Associated Molecular Pattern (DAMP)-sensing Toll-Like Receptor 2 (TLR2; left panel). Flow cytometry-based quantification of GFP-positive cells at the end of NSC reprogramming (day 15), in the presence of TLR2 inhibitor MMG-11, vehicle control (DMSO) or no treatment (right panel). C) Colony count data for quantification of reprogramming of human fibroblast cells at the end of reprogramming (day 40) after treatment with STING inhibitor H-151 (left panel), TLR2 inhibitor MMG-11 (right panel) or vehicle control (DMSO).

In test [1] the test system is citrullinated histone H3 (H3Cit), product of PADI4 activity. As to the kind of experiment: Western blot for citrullinated histone H3 in conditioned medium of NSC reprogramming cultures. In kind it is cell-based, mouse. Particulars: conditioned medium from reprogramming cultures, similar total histone H3. An excerpt:
FIG. 7: Citrullinated histones are found in culture medium conditioned by reprogramming cultures. Immunoblot analysis for total histone H3 (top) and two different citrullination marks on histone H3 (middle and bottom) on conditioned medium of NSC reprogramming cells cultured in the presence or absence or the PADI4 inhibitor CI-amidine. Data from two independent experiments are shown. Citrullinated histone H3 is readily detected in the conditioned medium and inhibited by CI-amidine.
Based on this finding, the conditioned medium of Example 4 was analysed for the presence of H3Cit by Western blot (FIG. 7). Citrullinated histone H3 (H3Cit) can be readily detected in the conditioned medium from reprogramming cultures (FIG. 7, middle and lower panels labelled “H3CitR2” and H3CitR8”, lanes labelled “-CI-am”), and this is reduced in conditioned medium from reprogramming cultures in which the PADI4 inhibitor CI-amidine has been added (FIG. 7, middle and lower panels labelled “H3CitR2” and H3CitR8”, lanes labelled “+CI-am”), despite similar levels of total histone H3 being present (FIG. 7, top panel labelled “H3”).

Turning to `CCOC(=O)c1ccc(CC(=O)c2ccc(O)c(O)c2O)o1` [MMG-11], in the test on NSO4G neural stem cells, the “proportion of OCT4-GFP positive cells (reprogramming cells) at the end of reprogramming” value (“proportion of OCT4-GFP positive cells” for short) was “significantly reduced”. Besides, in the test on human fibroblasts, the “number of colonies (successfully reprogrammed cells)” value (from here on “number of colonies”) is on record as “significantly reduced number of colonies”.
In the case of `COc1cc(C(=O)N2CC[C@@H](O)[C@@H](N)C2)cc2nc(-c3cc4ccccc4n3CC3CC3)n(C)c12` [GSK484], in the test on human fibroblasts, the “number of colonies” value is given as “significantly reduced”.
Regarding `CCc1ccc(NC(=O)Nc2c[nH]c3ccccc23)cc1` [H-151], the “proportion of OCT4-GFP positive cells” value in the test on NSO4G neural stem cells is reported as “significantly reduced”. Besides, the “number of colonies” value in the test with human fibroblasts was “significantly reduced number of colonies”.
For `NC(=O)[C@H](CCCN=C(N)CCl)NC(=O)c1ccccc1` [CI-amidine], the “proportion of OCT4-GFP positive cells” value with NSO4G neural stem cells is “The same result is achieved”. Besides, in test [1], the “citrullinated histone H3 (H3CitR2, H3CitR8) detected in conditioned medium” value is “reduced”. Further, in the test with human fibroblasts, the “number of colonies” value was “significantly reduced”.
